Measurements as given in patent publication US12588677B2, “Herbicidal compositions comprising topramezone” (BASF SE, priority 2024, dated 2026).

Columns and labels:
Type in all cases: in vivo
[1] = test system: Setaria verticillata (SETVE); test: Post-emergence application in field trials; conditions: height 8-16 cm
Text: (§1) Post-Emergence Application of Herbicide A-1 (A-1) and Topramezone (B-1) in Field Trials
(§2) Herbicide A-1 (342 g/l) and topramezone (336 g/l) were, together with addition of 0.25 v/v % MSO (methylated sed oil) as adjuvant, formulated in water as distribution medium (water volume 200 l/ha) and sprayed with commercial flat fan nozzles.

[2] = test system: Abutilon theophrasti (ABUTH); test: Post-emergence application in field trials; conditions: height 10-12 cm
Text: as §1, §2

Zea mays (ZEAMX) [3] = test: Post-emergence application in field trials; conditions: height 50-60 cm
Text: as §1, §2

Hordeum vulgare (HORVX) = test: Post-emergence application in field trials; conditions: height 20-25 cm
Text: as §1, §2

Glycine max (GLXMA) [4] = test: Post-emergence application in field trials; conditions: height 7-11 cm, 7 DAT
Text: as §1, §2

[5] = test system: Digitaria sanguinalis (DIGSA); test: Post-emergence application in field trials; conditions: 21 DAT, height 10-15 cm
Text: as §1, §2

[6] = test system: Abutilon theophrasti (ABUTH); test: Post-emergence application in greenhouse trials; conditions: 7 DAT
Description: (§3) The culture containers used were plastic pots containing loamy sand with approximately 3.0% of humus as substrate. The seeds of the test plants were sown separately for each species.
(§4) For the post-emergence treatment, the test plants were grown to a plant height as indicated below, depending on the plant habit, and only then treated with the active compounds which had been suspended or emulsified in water. To this end, the test plants were either sown directly, and grown in the same containers, or they were first grown separately as seedlings and transplanted into the test containers a few days prior to treatment.
(§5) Depending on the species, the plants were kept at 10-25° C. and 20-35° C., respectively. The test period extended over 2 to 4 weeks. During this time, the plants were tended and their response to the individual treatments was evaluated.
(§6) Evaluation was carried out using a scale from 0 to 100. 100 means no emergence of the plants, or complete destruction of at least the above-ground parts, and 0 means no damage or normal course of growth. A good herbicidal activity is given at values of at least 70, and very good herbicidal activity is given at values of at least 85.
(§7) Herbicide A-1 and topramezone were, together with addition of 0.5 v/v % MSO (methylated sed oil) as adjuvant, formulated in water as distribution medium (water volume 200 l/ha) and sprayed with commercial flat fan nozzles.
(§8) Herbicide A-1 (342 g/l), topramezone (336 g/l) and DMTA-p (720 g/l) were, together with addition of 0.5 v/v % MSO (methylated sed oil) as adjuvant, formulated in water as distribution medium (water volume 200 l/ha) and sprayed with commercial flat fan nozzles.

[7] = test system: Amaranthus tamariscinus (AMATA); test: Post-emergence application in greenhouse trials; conditions: 7 DAT
Description: as §3, §4, §5, §6, §7, §8

Avena fatua (AVEFA) = test: Post-emergence application in greenhouse trials
Description: as §3, §4, §5, §6, §7, §8

Zea mays (ZEAMX) [8] = test: Post-emergence application in greenhouse trials
Description: as §3, §4, §5, §6, §7, §8

[9] = test system: Commelina benghalenis (COMBE); test: Post-emergence application in greenhouse trials
Description: as §3, §4, §5, §6, §7, §8

Setaria virids (SETVI) = test: Post-emergence application in greenhouse trials
Description: as §3, §4, §5, §6, §7, §8

Eleusine indica (ELEIN) = test: Post-emergence application in greenhouse trials; conditions: 7 DAT
Description: as §3, §4, §5, §6, §7, §8

Glycine max (GLXMA) [10] = test: Post-emergence application in greenhouse trials; conditions: 7 DAT
Description: as §3, §4, §5, §6, §7, §8

[11] = test system: Erigeron canadensis (ERICA); test: Post-emergence application in greenhouse trials; conditions: 20 DAT
Description: as §3, §4, §5, §6, §7, §8

[12] = test system: Brachiaria decumbens (BRADC (BRARU)); test: Post-emergence application in greenhouse trials
Description: as §3, §4, §5, §6, §7, §8

Kochia scoparia (KCHSC) = test: Post-emergence application in greenhouse trials; conditions: 20 DAT
Description: as §3, §4, §5, §6, §7, §8

[13] = test system: Digitaria sanguinalis (DIGSA); test: Post-emergence application in greenhouse trials; conditions: 20 DAT
Description: as §3, §4, §5, §6, §7, §8

[14] = 7 DAT, growth stage 11, 2 g ai/ha
[15] = 20 DAT, growth stage 12, 0.5 g ai/ha
[16] = 20 DAT, growth stage 12, 1 g ai/ha
[17] = 7 DAT, growth stage 11, 3.125 g ai/ha
[18] = 7 DAT, growth stage 11, 120 g ai/ha

CCOC(=O)COc1ccccc1Oc1nc(-n2c(=O)cc(C(F)(F)F)n(C)c2=O)c(F)cc1Cl [A-1, ethyl 2-[2-[[3-chloro-5-fluoro-6-[3-methyl-2,6-dioxo-4-(trifluoromethyl)pyrimidin-1-yl]-2-pyridyl]oxy]phenoxy]acetate]
% herbicidal activity ([1]; 21 DAT, 12.5 g ai/ha): 45%
% herbicidal activity ([1]; 42 DAT, 12.5 g ai/ha): 30%
% herbicidal activity ([2]; 21 DAT, 18 g ai/ha): 92%
% herbicidal activity ([2]; 42 DAT, 18 g ai/ha): 90%
% herbicidal activity ([2]; ABUTH, A-1 18 g ai/ha, 7 DAT): 90%
% herbicidal activity (Zea mays (ZEAMX) [3]; 21 DAT, 12.5 g ai/ha): 70%
% herbicidal activity (Zea mays (ZEAMX) [3]; 21 DAT, 18 g ai/ha): 75%
% herbicidal activity (Zea mays (ZEAMX) [3]; 28 DAT, 12.5 g ai/ha): 50%
% herbicidal activity (Zea mays (ZEAMX) [3]; 28 DAT, 18 g ai/ha): 60%
% herbicidal activity (Hordeum vulgare (HORVX); 21 DAT, 12.5 g ai/ha): 90%
% herbicidal activity (Hordeum vulgare (HORVX); 21 DAT, 18 g ai/ha): 95%
% herbicidal activity (Hordeum vulgare (HORVX); HORVX, A-1 12.5 g ai/ha, 7 DAT): 70%
% herbicidal activity (Glycine max (GLXMA) [4]; A-1 18 g ai/ha): 93%
% herbicidal activity ([5]; 12.5 g ai/ha): 70%
% herbicidal activity ([6]; growth stage 15, 0.5 g ai/ha): 85%
% herbicidal activity ([6]; ABUTH, growth stage 13, A-1 0.25 g ai/ha): 10%
% herbicidal activity ([6]; ABUTH, growth stage 13, A-1 1 g ai/ha): 50%
% herbicidal activity ([7]; growth stage 14, A-1 1 g ai/ha): 80%
% herbicidal activity (Avena fatua (AVEFA); [14]): 55%
% herbicidal activity (Avena fatua (AVEFA); 21 DAT, growth stage 11, 2 g ai/ha): 30%
% herbicidal activity (Zea mays (ZEAMX) [8]; 7 DAT, growth stage 12, 2 g ai/ha): 60%
% herbicidal activity (Zea mays (ZEAMX) [8]; 21 DAT, growth stage 12, 2 g ai/ha): 40%
% herbicidal activity ([9]; 20 DAT, growth stage 11, 1 g ai/ha): 5%
% herbicidal activity ([9]; 21 DAT, growth stage 13, 1 g ai/ha): 80%
% herbicidal activity (Setaria virids (SETVI); [15]): 10%
% herbicidal activity (Setaria virids (SETVI); [16]): 15%
% herbicidal activity (Setaria virids (SETVI); SETVI, growth stage 12, A-1 1 g ai/ha, 7 DAT): 15%
% herbicidal activity (Setaria virids (SETVI); SETVI, growth stage 12, A-1 2 g ai/ha, 7 DAT): 25%
% herbicidal activity (Eleusine indica (ELEIN); growth stage 13, A-1 1 g ai/ha): 45%
% herbicidal activity (Glycine max (GLXMA) [10]; growth stage 18, 1 g ai/ha): 90%
% herbicidal activity ([11]; growth stage 19, 0.5 g ai/ha): 0%
% herbicidal activity ([11]; growth stage 19, 2 g ai/ha): 40%
% herbicidal activity [12, 14]: 50%
% herbicidal activity ([12]; 20 DAT, growth stage 12, 0.25 g ai/ha): 5%
% herbicidal activity [12, 15]: 15%
% herbicidal activity [12, 16]: 30%
% herbicidal activity (Kochia scoparia (KCHSC); growth stage 24, 0.25 g ai/ha): 0%
% herbicidal activity ([13]; growth stage 13, 0.25 g ai/ha): 5%

Cc1c(C(=O)c2cnn(C)c2O)ccc(S(C)(=O)=O)c1C1=NOCC1 [B-1, topramezone]
% herbicidal activity ([1]; 21 DAT, 18 g ai/ha): 45%
% herbicidal activity ([1]; 42 DAT, 18 g ai/ha): 40%
% herbicidal activity ([2]; 21 DAT, 12.5 g ai/ha): 60%
% herbicidal activity ([2]; 21 DAT, 18 g ai/ha): 65%
% herbicidal activity ([2]; 42 DAT, 12.5 g ai/ha): 60%
% herbicidal activity ([2]; 42 DAT, 18 g ai/ha): 65%
% herbicidal activity ([2]; ABUTH, B-1 12.5 g ai/ha, 7 DAT): 50%
% herbicidal activity ([2]; ABUTH, B-1 18 g ai/ha, 7 DAT): 55%
% herbicidal activity (Zea mays (ZEAMX) [3]; 21 DAT, 12.5 g ai/ha): 0%
% herbicidal activity (Zea mays (ZEAMX) [3]; 21 DAT, 18 g ai/ha): 0%
% herbicidal activity (Zea mays (ZEAMX) [3]; 28 DAT, 12.5 g ai/ha): 0%
% herbicidal activity (Zea mays (ZEAMX) [3]; 28 DAT, 18 g ai/ha): 0%
% herbicidal activity (Hordeum vulgare (HORVX); 21 DAT, 12.5 g ai/ha): 0%
% herbicidal activity (Hordeum vulgare (HORVX); 21 DAT, 18 g ai/ha): 10%
% herbicidal activity (Hordeum vulgare (HORVX); HORVX, B-1 18 g ai/ha, 7 DAT): 20%
% herbicidal activity (Glycine max (GLXMA) [4]; B-1 12.5 g ai/ha): 45%
% herbicidal activity (Glycine max (GLXMA) [4]; B-1 18 g ai/ha): 45%
% herbicidal activity ([5]; 18 g ai/ha): 40%
% herbicidal activity ([6]; growth stage 15, 3.125 g ai/ha): 50%
% herbicidal activity ([6]; ABUTH, growth stage 13, B-1 3.12 g ai/ha): 45%
% herbicidal activity ([7]; growth stage 14, B-1 6.25 g ai/ha): 80%
% herbicidal activity (Avena fatua (AVEFA); [17]): 10%
% herbicidal activity (Avena fatua (AVEFA); 21 DAT, growth stage 11, 3.125 g ai/ha): 10%
% herbicidal activity (Zea mays (ZEAMX) [8]; 7 DAT, growth stage 12, 3.125 g ai/ha): 5%
% herbicidal activity (Zea mays (ZEAMX) [8]; 21 DAT, growth stage 12, 3.125 g ai/ha): 0%
% herbicidal activity ([9]; 20 DAT, growth stage 11, 6.25 g ai/ha): 10%
% herbicidal activity ([9]; 21 DAT, growth stage 13, 3.125 g ai/ha): 35%
% herbicidal activity (Setaria virids (SETVI); 20 DAT, growth stage 12, 3.12 g ai/ha): 70%
% herbicidal activity (Setaria virids (SETVI); SETVI, growth stage 12, B-1 6.25 g ai/ha, 7 DAT): 75%
% herbicidal activity (Eleusine indica (ELEIN); growth stage 13, B-1 3.12 g ai/ha): 80%
% herbicidal activity (Glycine max (GLXMA) [10]; growth stage 18, 3.125 g ai/ha): 20%
% herbicidal activity ([11]; growth stage 19, 3.12 g ai/ha): 25%
% herbicidal activity ([11]; growth stage 19, 6.25 g ai/ha): 55%
% herbicidal activity [12, 17]: 50%
% herbicidal activity ([12]; 20 DAT, growth stage 12, 6.25 g ai/ha): 75%
% herbicidal activity (Kochia scoparia (KCHSC); growth stage 24, 6.25 g ai/ha): 60%
% herbicidal activity ([13]; growth stage 13, 3.12 g ai/ha): 85%

COC[C@H](C)N(C(=O)CCl)c1c(C)csc1C [C-23, dimethenamid-p (DMTA-p)]
% herbicidal activity ([6]; growth stage 15, 120 g ai/ha): 0%
% herbicidal activity (Avena fatua (AVEFA); [18]): 0%
% herbicidal activity (Avena fatua (AVEFA); 21 DAT, growth stage 11, 120 g ai/ha): 40%
% herbicidal activity (Zea mays (ZEAMX) [8]; 7 DAT, growth stage 12, 120 g ai/ha): 0%
% herbicidal activity (Zea mays (ZEAMX) [8]; 21 DAT, growth stage 12, 120 g ai/ha): 0%
% herbicidal activity ([9]; 21 DAT, growth stage 13, 120 g ai/ha): 10%
% herbicidal activity (Glycine max (GLXMA) [10]; growth stage 18, 120 g ai/ha): 0%
% herbicidal activity [12, 18]: 10%
